Laboratory results: ChEMBL document CHEMBL5608203, “Design, synthesis and biological evaluation of a new series of imidazothiazole-hydrazone hybrids as dual EGFR and Akt inhibitors for NSCLC therapy” (Eur J Med Chem, 2024)
pIC50: −log10 of the molar value.

Key:
A549 [1] = test: Induction of apoptosis in human A549 cells assessed as early apoptotic cells at IC50 incubated for 24 hrs by Annexin V-FITC/PI staining based flow cytometry (reference value: 0.11 %); format: functional
A549 [2] = test: cells; conditions: Homo sapiens, A549, 24 h
Description: Cytotoxicity against human A549 cells incubated for 24 hrs by MTT assay

A549 [3] = test: Induction of cell cycle arrest at G2/M phase in human A549 cells at IC50 incubated for 24 hrs by PI staining based flow cytometry (reference value: 14.00 %); format: functional
[4] = Cytotoxicity against human CCD 19Lu cells incubated for 24 hrs by MTT assay; format: toxicity, cell-based
A549 [5] = test: Induction of cell cycle arrest at S phase in human A549 cells at IC50 incubated for 24 hrs by PI staining based flow cytometry (reference value: 59.62 %); format: functional
A549 [6] = test: Induction of apoptosis in human A549 cells assessed as late apoptotic cells at IC50 incubated for 24 hrs by Annexin V-FITC/PI staining based flow cytometry (reference value: 1.36 %); format: functional
A549 [7] = test: Induction of apoptosis in human A549 cells assessed as necrotic cells at IC50 incubated for 24 hrs by Annexin V-FITC/PI staining based flow cytometry (reference value: 2.05 %); format: functional
A549 [8] = test: Induction of apoptosis in human A549 cells assessed as caspase-3-negative cells at IC50 incubated for 24 hrs by flow cytometry (reference value: 98.49 %); format: functional
A549 [9] = test: Induction of apoptosis in human A549 cells assessed as viable cells at IC50 incubated for 24 hrs by Annexin V-FITC/PI staining based flow cytometry (reference value: 96.48 %); format: functional
A549 [10] = test: Induction of apoptosis in human A549 cells assessed as caspase-3-positive cells at IC50 incubated for 24 hrs by flow cytometry (reference value: 1.50 %); format: functional
A549 [11] = test: Induction of cell cycle arrest at G0/G1 phase in human A549 cells at IC50 incubated for 24 hrs by PI staining based flow cytometry (reference value: 9.17 %); format: functional

| SMILES | Activity (A549 [1]) [%] | pIC50 (A549 [2]) | Activity (A549 [3]) [%] | IC50 at 24 h [4] [µM] | Activity (A549 [5]) [%] | Activity (A549 [6]) [%] | Activity (A549 [7]) [%] | Activity (A549 [8]) [%] | Activity (A549 [9]) [%] | Activity (A549 [10]) [%] | Activity (A549 [11]) [%] |
| --- | --- | --- | --- | --- | --- | --- | --- | --- | --- | --- | --- |
| N#Cc1ccc(/C=N/NC(=O)Cc2csc3nc(-c4ccc(C#N)cc4)cn23)cc1 | 22.33 | 4.36 | 12.95 | > 500 | 43.76 | 14.85 | 0.11 | 63.66 | 62.71 | 34.94 | 13.81 |
| N#Cc1ccc(-c2cn3c(CC(=O)N/N=C/c4ccc(Oc5ccc(F)cc5)cc4)csc3n2)cc1 | – | < 3.30 | – | – | – | – | – | – | – | – | – |
| N#Cc1ccc(-c2cn3c(CC(=O)N/N=C/c4ccc(-n5ccnc5)cc4)csc3n2)cc1 | – | 4.77 | – | 1.44 | – | – | – | – | – | – | – |
| N#Cc1ccc(-c2cn3c(CC(=O)N/N=C/c4ccc(Oc5ccc(Br)cc5)cc4)csc3n2)cc1 | – | < 3.30 | – | – | – | – | – | – | – | – | – |
| N#Cc1ccc(-c2cn3c(CC(=O)N/N=C/c4ccc(Oc5ccc(Cl)cc5)cc4)csc3n2)cc1 | – | < 3.30 | – | – | – | – | – | – | – | – | – |
| N#Cc1ccc(-c2cn3c(CC(=O)N/N=C/c4ccc(N5CCCC5)cc4)csc3n2)cc1 | – | < 3.30 | – | – | – | – | – | – | – | – | – |
| N#Cc1ccc(-c2cn3c(CC(=O)N/N=C/c4ccc(Br)cc4)csc3n2)cc1 | – | < 3.30 | – | – | – | – | – | – | – | – | – |
| N#Cc1ccc(-c2cn3c(CC(=O)N/N=C/c4ccc(C(F)(F)F)cc4)csc3n2)cc1 | – | < 3.30 | – | – | – | – | – | – | – | – | – |
| N#Cc1ccc(-c2cn3c(CC(=O)N/N=C/c4ccc(F)cc4)csc3n2)cc1 | – | 4.00 | – | 44.4 | – | – | – | – | – | – | – |
| CS(=O)(=O)c1ccc(/C=N/NC(=O)Cc2csc3nc(-c4ccc(C#N)cc4)cn23)cc1 | – | 3.88 | – | 160 | – | – | – | – | – | – | – |
| CC(C)c1ccc(/C=N/NC(=O)Cc2csc3nc(-c4ccc(C#N)cc4)cn23)cc1 | – | 4.81 | – | < 3.9 | – | – | – | – | – | – | – |
| COc1ccc(/C=N/NC(=O)Cc2csc3nc(-c4ccc(C#N)cc4)cn23)cc1 | 21.98 | 4.84 | 10.28 | 51.7 | 68.81 | 4.42 | 0.24 | 97.08 | 73.36 | 2.58 | 5.65 |
| CCn1c(-c2nonc2N)nc2c(C#CC(C)(C)O)ncc(OC[C@H]3CCCNC3)c21 [GSK-690693] | 43 | 4.93 | 13.5 | – | 27.55 | 18.78 | 1.86 | 73.93 | 36.36 | 24.29 | 30.35 |
| N#Cc1ccc(-c2cn3c(CC(=O)N/N=C/c4ccc(-n5cncn5)cc4)csc3n2)cc1 | – | 4.06 | – | > 500 | – | – | – | – | – | – | – |
| N#Cc1ccc(-c2cn3c(CC(=O)N/N=C/c4ccc5ccccc5c4)csc3n2)cc1 | – | < 3.30 | – | – | – | – | – | – | – | – | – |
| CC(C)(C)c1ccc(/C=N/NC(=O)Cc2csc3nc(-c4ccc(C#N)cc4)cn23)cc1 | 15.38 | 4.65 | 20.92 | 66.5 | 48.94 | 5.13 | 0.32 | 95.41 | 79.17 | 4.14 | 3.91 |
| N#Cc1ccc(-c2cn3c(CC(=O)N/N=C/c4ccc([N+](=O)[O-])cc4)csc3n2)cc1 | – | < 3.30 | – | – | – | – | – | – | – | – | – |
| N#Cc1ccc(-c2cn3c(CC(=O)N/N=C/c4ccc(N5CCOCC5)cc4)csc3n2)cc1 | – | 4.91 | – | 4.9 | – | – | – | – | – | – | – |
| N#Cc1ccc(-c2cn3c(CC(=O)N/N=C/c4ccc(O)cc4)csc3n2)cc1 | 0.03 | 4.62 | 26.23 | > 500 | 32.15 | 4.03 | 3.89 | 97.42 | 92.05 | 2.36 | 4.95 |
| N#Cc1ccc(-c2cn3c(CC(=O)N/N=C/c4ccccc4)csc3n2)cc1 | 8.7 | 4.29 | 16.14 | > 500 | 38.28 | 3.76 | 0.02 | 95.65 | 87.52 | 3.97 | 7.37 |
| N#Cc1ccc(-c2cn3c(CC(=O)N/N=C/c4ccc(Cl)cc4)csc3n2)cc1 | – | < 3.30 | – | – | – | – | – | – | – | – | – |
| N#Cc1ccc(-c2cn3c(CC(=O)N/N=C/c4ccc(Oc5ccccc5)cc4)csc3n2)cc1 | – | < 3.30 | – | – | – | – | – | – | – | – | – |
| N#Cc1ccc(-c2cn3c(CC(=O)N/N=C/c4ccc(Oc5ccc([N+](=O)[O-])cc5)cc4)csc3n2)cc1 | – | < 3.30 | – | – | – | – | – | – | – | – | – |
| CSc1ccc(/C=N/NC(=O)Cc2csc3nc(-c4ccc(C#N)cc4)cn23)cc1 | – | 3.42 | – | > 500 | – | – | – | – | – | – | – |
| Cc1ccc(/C=N/NC(=O)Cc2csc3nc(-c4ccc(C#N)cc4)cn23)cc1 | 16.74 | 4.75 | 13.74 | 115 | 62.99 | 5.72 | 0.17 | 97.98 | 77.37 | 1.88 | 6.54 |
| C#Cc1cccc(Nc2ncnc3cc(OCCOC)c(OCCOC)cc23)c1 [ERLOTINIB] | 12.28 | – | 13.45 | – | 54.85 | 4.86 | 0.09 | 93.1 | 82.76 | 6.31 | 12.58 |
| N#Cc1ccc(-c2cn3c(CC(=O)N/N=C/c4ccc(N5CCCCC5)cc4)csc3n2)cc1 | – | 3.66 | – | > 500 | – | – | – | – | – | – | – |
| N#Cc1ccc(-c2cn3c(CC(=O)N/N=C/c4ccc(-c5ccccn5)cc4)csc3n2)cc1 | – | < 3.30 | – | – | – | – | – | – | – | – | – |
| N#Cc1ccc(Oc2ccc(/C=N/NC(=O)Cc3csc4nc(-c5ccc(C#N)cc5)cn34)cc2)cc1 | – | < 3.30 | – | – | – | – | – | – | – | – | – |
